The values below are quoted from earlier work in US20170112856A1, “PHARMACEUTICAL COMPOSITION FOR TREATING CANCER IN AN INDIVIDUAL SUBJECT SUFFERING CANCER” (MA SHEN KAI RUEI CO., LTD., priority 2015, published 2017).

The test system of series [1] is murine macrophages RAW264.7. Conditions: LPS-induction.
Series [2] concerns human colorectal cancer cells (COLO 205).
Series [3] deals with normal intestinal epithelial cells (FHC cells).
In series [4] the test system is human HL60 leukemia cells.

Regarding `COc1cc(C)c(O)c(OC)c1O` [2,4-dimethoxy-6-methyl-benzene-1,3-diol], the “amount of free radicals of nitric oxide” value in series [1] was “effectively reducing”.

As to `Cc1cc(O)c2c(c1O)OCO2` [2,3-(methylenedioxy)-6-methyl-benzene-1,4-diol], the “amount of free radicals of nitric oxide” value in series [1] is given as “effectively reducing”.

For “4-acetyl-Antroquinonol B [Composition 4-acetyl-AQB]”, the “amount of free radicals of nitric oxide” value in series [1] was “effectively reducing”.

Regarding Antroquinonol B [AQB], the “amount of free radicals of nitric oxide” value in series [1] was “effectively reducing”.

Take `COc1cc(C)c(OC)c2c1OCO2` [SY-1]: the “programmed death of cell” value in series [2] (COLO 205, higher doses) was “induce programmed death of cell”. Moreover, the cell cycle result in series [2] (COLO 205, lower doses) is given as “remain in the G0/G1 phase”. In addition, the “impact on normal cells” value in series [3] is “does not have an impact”.

With `C=C(CC[C@@H](C)[C@H]1CC[C@H]2C3=C(C(=O)C[C@]12C)[C@@]1(C)CCC(=O)[C@@H](C)C1CC3=O)C(C)C(=O)O` (stereo partly drawn) [Zhankuic acid A, 4 α-methylergost-8,24(28)-dien-3,7,11-trion-26-oic acid], the apoptosis entry in series [4] is “inducing apoptosis”.
